Measured values from article PMC11168191, “Systemic Treatment with siRNA Targeting Gamma-Secretase Activating Protein Inhibits Amyloid-β Accumulation in Alzheimer’s Disease” (Biomaterials Research, 2024).
Like-named read-outs stand apart in the source and are kept apart here. Bridge positions count the residues as written; N and C are the ends. Ends that are not written are not given here. I, II: the chains in the order shown.

Experiments:
SOD1 = SOD1 gene silencing in mouse organs and brain regions, qPCR; type: in vivo, mice; settings: 400 pmol siSOD1, 100 μg peptide, tail vein, daily for 3 d, n = 8
Procedure: All procedures were performed in compliance with guidelines and protocols approved by the Institutional Animal Care and Use Committee (IACUC) of Hanyang University. The Balb/c mice were used to test the in vivo delivery of complexed particles to the brain. To ascertain ligand-receptor-mediated delivery of diLep9R3LC:siRNA, the leptin-receptor-deficient (db/db, Jackson Laboratory, ME) strains were utilized. Further, to study therapeutic efficacy of siRNA in AD, 7-month-old male 3xTg (B6;129-Psen1tm1Mpm Tg (APPSwe,tauP301L)1Lfa/Mmjax) mice (Jackson Laboratory, ME) were used. These mice show AD-like pathological and physiological characteristics with respect to formation of Aβ plaques and tangled tau as well as abnormal behaviors. […] In all experiments, a group of control mice (n = 4) were also injected with DPBS (pH 7.4).
For quantitative polymerase chain reaction (qPCR), total RNA was extracted from N2a cells 24 h posttransfection and homogenized brain samples using the RNAiso kit (Takara, Kyoto, Japan). The RNA was quantified with SYBR premix Ex Taq perfect real time (Takara, Kyoto, Japan) with qPCR primers. In all cases, relative gene expression was calculated in comparison to normalized target mRNA levels in nontreated groups. […] All primers were synthesized from Cosmogenetech (Seoul, Korea), and sequences are depicted below.

N2a cells [1] = experiment: Cytotoxicity, Cell Counting Kit-8 assay; settings: 24 h posttransfection, Cell Counting Kit-8, at tested weight ratio, with siSOD1 (Fig. 1G)
leptin receptor [2] = target: T1, leptin receptor (Homo sapiens, UniProt P48357); experiment: SPR biosensor binding of peptide to immobilized leptin receptor; settings: for kon: read-out: association constant (Ka)
T1 construct: purchased R&D Systems
T1 sequence (P48357 22-1165): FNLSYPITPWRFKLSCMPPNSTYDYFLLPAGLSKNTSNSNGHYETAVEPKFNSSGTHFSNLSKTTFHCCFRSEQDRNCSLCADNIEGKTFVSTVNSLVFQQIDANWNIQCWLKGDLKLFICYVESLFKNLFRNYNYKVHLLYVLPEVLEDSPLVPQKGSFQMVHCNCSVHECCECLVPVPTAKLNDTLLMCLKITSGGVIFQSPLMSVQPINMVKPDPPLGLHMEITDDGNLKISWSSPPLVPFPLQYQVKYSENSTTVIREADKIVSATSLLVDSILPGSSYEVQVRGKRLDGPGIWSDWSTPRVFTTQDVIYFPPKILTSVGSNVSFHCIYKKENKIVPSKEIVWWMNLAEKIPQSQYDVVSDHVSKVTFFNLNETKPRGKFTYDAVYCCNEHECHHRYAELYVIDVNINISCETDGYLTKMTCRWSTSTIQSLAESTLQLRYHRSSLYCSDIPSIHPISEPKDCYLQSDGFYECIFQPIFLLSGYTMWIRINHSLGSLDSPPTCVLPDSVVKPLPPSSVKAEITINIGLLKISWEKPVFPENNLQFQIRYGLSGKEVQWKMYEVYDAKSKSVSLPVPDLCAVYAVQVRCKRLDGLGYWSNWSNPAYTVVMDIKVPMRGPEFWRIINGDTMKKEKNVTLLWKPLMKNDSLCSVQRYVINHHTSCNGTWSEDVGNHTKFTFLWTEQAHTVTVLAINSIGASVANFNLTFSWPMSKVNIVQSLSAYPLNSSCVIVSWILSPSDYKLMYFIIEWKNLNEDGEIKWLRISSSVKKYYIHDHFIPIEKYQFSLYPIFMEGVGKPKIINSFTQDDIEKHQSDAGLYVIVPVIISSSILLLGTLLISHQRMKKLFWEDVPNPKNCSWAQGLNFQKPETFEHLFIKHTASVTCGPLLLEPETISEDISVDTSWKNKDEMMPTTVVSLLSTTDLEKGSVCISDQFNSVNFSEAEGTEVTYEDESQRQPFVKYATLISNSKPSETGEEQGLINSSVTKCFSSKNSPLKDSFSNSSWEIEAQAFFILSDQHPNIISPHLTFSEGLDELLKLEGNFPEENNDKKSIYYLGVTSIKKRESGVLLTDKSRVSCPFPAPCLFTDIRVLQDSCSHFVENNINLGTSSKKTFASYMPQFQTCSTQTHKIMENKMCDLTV
Procedure: The direct binding of diLep9R3LC or Lep9R3LC to the target was evaluated using a dual-channel surface plasmon resonance (SPR) instrument (Reichert SR7500DC system, Depew, NY). The process of immobilizing the leptin receptor protein (R&D Systems, Minneapolis, MN) onto the sensor chip surface was accomplished using free amine coupling through an 1-ethyl-3-(3-dimethylaminopropyl) carbodiimide hydrochloride (EDC)/N-hydroxysuccinimide (NHS) reaction. The process of the EDC/NHS reaction involves injecting a mixture containing 0.1 M EDC and 0.05 M NHS. Subsequently, the remaining activated carboxyl groups were quenched with 1 M ethanolamine at pH 6.0. All dilutions of the working peptides were prepared in the running buffer (PBS with 1% DMSO) and injected for 3 min (association time) at a flow rate of 50 μl/min followed by a dissociation phase of 3 min. Nonspecific background binding was subtracted from each sensogram using SPR_V4017 Data Acquisition and Alignment Program (Reichert, Depew, NY). Binding rates and constants were independent of flow rate over a wide range. Best-fit kinetic parameters were obtained by global fitting analysis using Scrubber2 (Biologic Software, Australia).

N2a cells [3] = tested on: N2a cells
leptin receptor [4] = target: T2, leptin receptor (Mus musculus, UniProt P48356); experiment: SPR
T2 chain: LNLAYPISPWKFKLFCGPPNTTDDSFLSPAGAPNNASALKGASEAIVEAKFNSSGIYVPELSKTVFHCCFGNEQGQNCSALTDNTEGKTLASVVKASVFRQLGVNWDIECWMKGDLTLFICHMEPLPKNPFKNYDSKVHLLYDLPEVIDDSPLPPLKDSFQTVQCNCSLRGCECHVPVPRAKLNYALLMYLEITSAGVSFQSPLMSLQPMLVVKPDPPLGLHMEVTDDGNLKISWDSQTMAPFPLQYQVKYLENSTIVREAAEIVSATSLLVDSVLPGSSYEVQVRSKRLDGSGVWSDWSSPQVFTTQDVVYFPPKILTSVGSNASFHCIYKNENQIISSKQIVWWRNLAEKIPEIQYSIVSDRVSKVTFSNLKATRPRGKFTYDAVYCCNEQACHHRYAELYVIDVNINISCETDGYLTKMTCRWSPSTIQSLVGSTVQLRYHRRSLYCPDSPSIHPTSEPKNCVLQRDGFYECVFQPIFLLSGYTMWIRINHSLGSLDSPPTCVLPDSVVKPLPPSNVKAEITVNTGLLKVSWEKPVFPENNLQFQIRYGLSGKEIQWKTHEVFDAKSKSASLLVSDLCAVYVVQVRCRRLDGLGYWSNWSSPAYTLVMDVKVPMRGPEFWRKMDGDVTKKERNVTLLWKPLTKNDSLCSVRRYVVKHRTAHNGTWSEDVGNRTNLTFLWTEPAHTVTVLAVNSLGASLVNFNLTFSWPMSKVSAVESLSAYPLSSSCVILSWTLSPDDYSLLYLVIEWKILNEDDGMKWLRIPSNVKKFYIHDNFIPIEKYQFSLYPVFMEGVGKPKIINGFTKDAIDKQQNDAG

EVGQSDYSSYARTSIRASLTFGGGGRRRRRRRRRLLLC [scrambled9R, scrambled peptide, nontargeting control]
SOD1 silencing, brain (SOD1): not when used with scrambled peptide

I: YQQVLTSLPSQNVLQIANDLENLRDLLHLLGGGGRRRRRRRRRLLLC / II: YQQVLTSLPSQNVLQIANDLENLRDLLHLLGGGGRRRRRRRRRLLLC (disulfide I:47-II:47) [diLep9R3LC]
cytotoxicity (N2a cells [1]): did not show any cytotoxicity | kon (leptin receptor [2]): 3300 M⁻¹ s⁻¹

YQQVLTSLPSQNVLQIANDLENLRDLLHLLGGGGRRRRRRRRRLLLC [Lep9R3LC]
cytotoxicity (N2a cells [3]): did not show any cytotoxicity | kon (leptin receptor [2]; SPR Reichert SR7500DC, amine-coupled receptor, running buffer PBS with 1% DMSO, 3 min association, 3 min dissociation, 50 μl/min, global fit Scrubber2): 1100 M⁻¹ s⁻¹ | Kd (leptin receptor [2]; SPR, leptin receptor immobilized, PBS with 1% DMSO, global fit, read-out: binding affinity (KD) (Kd/Ka)): 1.38 µM

B1: Lep9R3LC (peptide)
chain: YQQVLTSLPSQNVLQIANDLENLRDLLHLLGGGGRRRRRRRRRLLLC
Kd (leptin receptor [4]): 1.38 µM

B2: diLep9R3LC (peptide)
chain: B1 chain
modifications: also: disulfide-linked dimer via C-terminal Cys
Kd (leptin receptor [4]): 0.462 µM
